Source: PMC13375149 (Journal of Raman spectroscopy : JRS, 2025)

Experiments:
[1] = SERS detection and time profile of PAHs/PAC in murine tissue extracts; assay type: in vivo, mice (C57BL6J)
[2] = GC-MS/MS quantification of B[a]P, PYR and TQE in tissues; assay type: in vivo, mice (C57BL6J)
[3] = 24, 48, 72 h post-injection, t(1) < 12.71, p > 0.05 as printed

SMILES | Detection in liver and kidney tissues using SERS and SEIRA ([1]; mouse, in vivo) | Statistical significance of GC-MS/MS tissue concentrations ([2]; female, C57BL6J, mouse, in vivo) | Detection in liver and kidney tissues using SERS and SEIRA ([1]; mice exposed to individual PAHs or PACs, Figs. S3 and S4) | Statistical significance of GC-MS/MS tissue concentrations [2, 3] | Tissue accumulation relative to the other analyzed compounds ([2]; IP mixture, brain, kidney, liver, lung, 24-72 h post-exposure)
c1ccc2c(c1)cc1ccc3cccc4ccc2c1c34 [B[a]P, benzo(a)pyrene] | successful detection | statistically significant except in lung at 72 hours post-injection |  |  | 
c1cc2ccc3cccc4ccc(c1)c2c34 [PYR, pyrene] |  |  | successful detection | statistically significant across all tissues and time points | 
O=C1c2ccccc2C(=O)c2cc3ccccc3cc21 [TQE, 5,12-Naphthacenequinone] | successful detection |  |  | statistically significant across all tissues and time points | lowest accumulation
